Data: the CheMixHub viscosity set

Experiment: xn = mol fraction of the nth substance listed

BrCCBr + Cc1ccc(C)cc1
101.33 kPa
Details | viscosity [mPa·s]
298.15 K, x1 = 0.1435 | 0.6686
298.15 K, x1 = 0.2783 | 0.7322
298.15 K, x1 = 0.391 | 0.7899
298.15 K, x1 = 0.4898 | 0.887
298.15 K, x1 = 0.5921 | 1.001
298.15 K, x1 = 0.6809 | 1.082
298.15 K, x1 = 0.7685 | 1.169
298.15 K, x1 = 0.8555 | 1.309
298.15 K, x1 = 0.9211 | 1.459
308.15 K, x1 = 0.1371 | 0.5822
308.15 K, x1 = 0.2566 | 0.6257
308.15 K, x1 = 0.3821 | 0.6992
308.15 K, x1 = 0.4845 | 0.7526
308.15 K, x1 = 0.5874 | 0.8292
308.15 K, x1 = 0.6798 | 0.9216
308.15 K, x1 = 0.7647 | 1.018
308.15 K, x1 = 0.8499 | 1.154
308.15 K, x1 = 0.9258 | 1.273

C1=C[C@H]2[C@@H](C1)[C@H]1C=C[C@@H]2C1 + Cc1ccc(C)cc1
viscosity [mPa·s], 101.2 kPa
Details | x1 = 0.1024 | x1 = 0.1971 | x1 = 0.3006 | x1 = 0.3993 | x1 = 0.4999 | x1 = 0.6007 | x1 = 0.7014 | x1 = 0.8001 | x1 = 0.8993
293.15 K | 0.7661 | 0.8509 | 0.9724 | 1.127 | 1.347 | 1.626 | 2.014 | 2.625 | 3.5
298.15 K | 0.7144 | 0.7986 | 0.9075 | 1.04 | 1.229 | 1.483 | 1.85 | 2.402 | 3.126
303.15 K | 0.6724 | 0.7508 | 0.8496 | 0.9666 | 1.141 | 1.367 | 1.693 | 2.174 | 2.81
308.15 K | 0.6225 | 0.7021 | 0.7934 | 0.9051 | 1.066 | 1.279 | 1.58 | 1.995 | 2.529
313.15 K | 0.5997 | 0.6653 | 0.7493 | 0.8554 | 1.001 | 1.19 | 1.457 | 1.826 | 2.271
318.15 K | 0.5879 | 0.6586 | 0.7357 | 0.8296 | 0.9662 | 1.138 | 1.371 | 1.689 | 2.104

CC(C)[N+](=O)[O-] + Cc1ccc(C)cc1
293.15 K, 101.33 kPa
Details | viscosity [mPa·s]
x1 = 0.1052 | 0.64
x1 = 0.2079 | 0.636
x1 = 0.2945 | 0.638
x1 = 0.3973 | 0.644
x1 = 0.4976 | 0.651
x1 = 0.6039 | 0.664
x1 = 0.7089 | 0.678
x1 = 0.8008 | 0.699
x1 = 0.8925 | 0.727

BrCCBr + Cc1cccc(C)c1
101.33 kPa
Details | viscosity [mPa·s]
298.15 K, x1 = 0.1391 | 0.6538
298.15 K, x1 = 0.269 | 0.7069
298.15 K, x1 = 0.3835 | 0.8095
298.15 K, x1 = 0.4852 | 0.8843
298.15 K, x1 = 0.5776 | 1.002
298.15 K, x1 = 0.6789 | 1.064
298.15 K, x1 = 0.7684 | 1.191
298.15 K, x1 = 0.8458 | 1.307
298.15 K, x1 = 0.9257 | 1.447
308.15 K, x1 = 0.1463 | 0.587
308.15 K, x1 = 0.2621 | 0.6362
308.15 K, x1 = 0.3771 | 0.7044
308.15 K, x1 = 0.4834 | 0.764
308.15 K, x1 = 0.5853 | 0.8526
308.15 K, x1 = 0.6796 | 0.9345
308.15 K, x1 = 0.7697 | 1.018
308.15 K, x1 = 0.8516 | 1.143
308.15 K, x1 = 0.9254 | 1.259

Brc1ccccc1 + Cc1cccc(C)c1
101 kPa
Details | viscosity [mPa·s]
293.15 K, x1 = 0.112 | 0.626
293.15 K, x1 = 0.2214 | 0.677
293.15 K, x1 = 0.3339 | 0.723
293.15 K, x1 = 0.5406 | 0.818
293.15 K, x1 = 0.6754 | 0.89
293.15 K, x1 = 0.7672 | 0.936
293.15 K, x1 = 0.848 | 0.978
293.15 K, x1 = 0.9095 | 1.01
298.15 K, x1 = 0.11 | 0.592
298.15 K, x1 = 0.2179 | 0.635
298.15 K, x1 = 0.3324 | 0.685
298.15 K, x1 = 0.4083 | 0.715
298.15 K, x1 = 0.5319 | 0.768
298.15 K, x1 = 0.6412 | 0.819
298.15 K, x1 = 0.7163 | 0.853
298.15 K, x1 = 0.866 | 0.927
303.15 K, x1 = 0.1106 | 0.555
303.15 K, x1 = 0.2212 | 0.592
303.15 K, x1 = 0.3352 | 0.639
303.15 K, x1 = 0.414 | 0.67
303.15 K, x1 = 0.5251 | 0.712
303.15 K, x1 = 0.6553 | 0.767
303.15 K, x1 = 0.765 | 0.815
303.15 K, x1 = 0.8807 | 0.866

BrCCBr + Cc1ccccc1
101.33 kPa
Details | viscosity [mPa·s]
298.15 K, x1 = 0.1229 | 0.6433
298.15 K, x1 = 0.2578 | 0.6736
298.15 K, x1 = 0.348 | 0.7383
298.15 K, x1 = 0.4549 | 0.8563
298.15 K, x1 = 0.5548 | 0.9001
298.15 K, x1 = 0.6537 | 1.015
298.15 K, x1 = 0.746 | 1.105
298.15 K, x1 = 0.8331 | 1.268
298.15 K, x1 = 0.9171 | 1.381
308.15 K, x1 = 0.1176 | 0.5499
308.15 K, x1 = 0.2377 | 0.6
308.15 K, x1 = 0.3568 | 0.6572
308.15 K, x1 = 0.4489 | 0.7283
308.15 K, x1 = 0.5524 | 0.8275
308.15 K, x1 = 0.652 | 0.9069
308.15 K, x1 = 0.7416 | 0.9937
308.15 K, x1 = 0.8319 | 1.111
308.15 K, x1 = 0.9144 | 1.233

Brc1ccccc1 + Cc1ccccc1
101 kPa
Details | viscosity [mPa·s]
293.15 K, x2 = 0.2 | 1.001
293.15 K, x2 = 0.4 | 0.885
293.15 K, x2 = 0.6 | 0.778
293.15 K, x2 = 0.8 | 0.677
298.15 K, x1 = 0.129 | 0.613
298.15 K, x1 = 0.267 | 0.672
298.15 K, x1 = 0.379 | 0.72
298.15 K, x1 = 0.505 | 0.786
298.15 K, x1 = 0.629 | 0.851
298.15 K, x1 = 0.736 | 0.91
298.15 K, x1 = 0.853 | 0.981
298.15 K, x1 = 0.882 | 0.996
298.15 K, x2 = 0.53 | 0.75
298.15 K, x2 = 0.623 | 0.7
298.15 K, x2 = 0.72 | 0.658
298.15 K, x2 = 0.869 | 0.603
303.15 K, x1 = 0.101 | 0.581
303.15 K, x1 = 0.129 | 0.574
303.15 K, x1 = 0.202 | 0.635
303.15 K, x1 = 0.267 | 0.626
303.15 K, x1 = 0.303 | 0.689
303.15 K, x1 = 0.379 | 0.674
303.15 K, x1 = 0.403 | 0.74
303.15 K, x1 = 0.503 | 0.788
303.15 K, x1 = 0.505 | 0.729
303.15 K, x1 = 0.603 | 0.831
303.15 K, x1 = 0.629 | 0.792
303.15 K, x1 = 0.703 | 0.877
303.15 K, x1 = 0.736 | 0.857
303.15 K, x1 = 0.802 | 0.918
303.15 K, x1 = 0.853 | 0.92
303.15 K, x1 = 0.882 | 0.938
303.15 K, x1 = 0.901 | 0.957
313.15 K, x2 = 0.2 | 0.786
313.15 K, x2 = 0.4 | 0.697
313.15 K, x2 = 0.6 | 0.614
313.15 K, x2 = 0.8 | 0.537

C1=C[C@H]2[C@@H](C1)[C@H]1C=C[C@@H]2C1 + Cc1ccccc1
viscosity [mPa·s], 101.2 kPa
Details | x1 = 0.1024 | x1 = 0.2018 | x1 = 0.3008 | x1 = 0.4006 | x1 = 0.4997 | x1 = 0.606 | x1 = 0.7014 | x1 = 0.7987 | x1 = 0.8991
293.15 K | 0.6849 | 0.7905 | 0.9144 | 1.08 | 1.279 | 1.57 | 1.948 | 2.495 | 3.305
298.15 K | 0.6448 | 0.7387 | 0.8543 | 1.001 | 1.174 | 1.44 | 1.758 | 2.24 | 2.96
303.15 K | 0.6068 | 0.69 | 0.7952 | 0.9255 | 1.083 | 1.313 | 1.602 | 2.024 | 2.665
308.15 K | 0.5742 | 0.6559 | 0.7533 | 0.8681 | 1.019 | 1.222 | 1.486 | 1.875 | 2.43
313.15 K | 0.5451 | 0.6205 | 0.7071 | 0.8118 | 0.9488 | 1.135 | 1.375 | 1.718 | 2.208
318.15 K | 0.5187 | 0.5889 | 0.6667 | 0.76 | 0.8866 | 1.062 | 1.283 | 1.58 | 2.012
